Read-outs that look alike come from different tables or passages of the source.
Key:
[1] = system: motility depression (depression of consciousness level) associated with cerebral ischemia; test: Recovery of motility after experimental cerebral ischemia; format: in vivo, Wistar rats; conditions: for Time to reappearance of spontaneous motility: control 81.5 ± 13.3
Source text: Experimental cerebral ischemia was produced in accordance with the method of Pulsinelli et al. (Stroke 10, 267-272, 1979), using Wistar rats 8-week old. On the first day of the experiment, the rats were anesthetized with pentobarbital, and their occipital skin and muscle were incised along the median line, then their vertebral arteries were cauterized bilaterally, and their ventral necks were incised, the bilateral common carotid arteries were separated from the surrounding tissue, to which a thread was applied. On the next day, the common carotid arteries were drawn out by the use of this thread under anaesthetic conditions, and occluded with clips for 30 minutes. By this treatment, serious cerebral ischemia was induced. After 30 minutes' occlusion, the clip was removed to allow the cerebral circulation to resume. Time to recovery of righting reflex and time to reappearance of spontaneous motor activity were measured on individual test animals. The test compound was orally administered to the animals as a 5% suspension in gum arabic one hour before causing the cerebral ischemia and immediately after the resumption of cerebral circulation. The control group was orally administered with only a 5% gum arabic suspension.

[2] = system: Retention deficit induced by scopolamine; test: Passive avoidance task, retention deficit induced by scopolamine; format: in vivo, mice; conditions: scopolamine 1 mg/kg i.p.; for recovery of memory: orally administered 5% gum arabic suspension, in words; for Avoidance Time (%): p.o., 3 mg/kg, percent change rate relative to control (100), P < 0.05
Source text: Actions of the compound (8) obtained in Working Example 8 and the compound (9) obtained in Working Example 9 on amelioration of memory impairment was studied using the passive avoidance task shown below. Five-week old male mice were placed first in the light chamber of a passive avoidance learning apparatus consisting of light and dark chambers. The mice immediately moved into the dark chamber, then an unescapable electric shock (0.5 mA, 3 sec.) was applied to the animals. These animals retained for several weeks the memory that they received the electric shock. This memory retention was disrupted by the following procedure, and the effect of the compounds (8) and (9) was tested. Thirty minutes prior to the application of electric shock, these animals were each administered with scopolamine (1 mg/kg, i.p), then these mice lost the memory of this experience of an electric shock.
On the following day, a retention recovery test was conducted. These mice were again placed in the light chamber of the passive avoidance apparatus and the time until the animals moved into the dark chamber (avoidance time) was measured. These mice which lost the memory of the experience of an electric shock moved again into the dark chamber in 10 to 20 seconds. […] The effects of these test compounds were examined by comparing the average value (11-15 animals/group) of the period of time during which the mice stayed in the light chamber with that of the control group (administered only a suspension of 5% gum arabic containing no test compound). The results were expressed by the percent change rate relative to the mean value (100) in the control group (Table 5).

[3] = system: impaired learning after cerebral ischemia; test: Passive avoidance learning impaired after cerebral ischemia; format: in vivo, Wistar rats
Procedure: As in the case of the above test (3-1), Wistar rats were used to produce an experimental model for cerebral ischemia. In this experiment, the time during which cerebral ischemia was caused in the animals was 5 minutes. By this treatment, a passive avoidance learning impairments was induced. The passive avoidance learning was tested in accordance with the method in Experiment 1. The test compound was suspended in a 5% gum arabic vehicle. Test animals were administered with this suspension three times, i.e. one hour prior to causing cerebral ischemia, two hours prior to a passive avoidance learning and two hours prior to the test. The control group was administered with only a 5% gum arabic suspension.

A2 receptor = biological target: T1, A2 receptor (Rattus norvegicus, UniProt P30543); test: A2 receptor antagonism (inhibition of 3H-NECA binding, rat corpus striatum membranes); conditions: in presence of 50 nM cyclopentyladenosine, read-out: A2 receptor (Ki, μM), binding-inhibition constant
T1 construct: corpus striatun (A2 receptor); from tissue; host or cells: rat corpus striatum membranes
Procedure: (§1) Preparation of membranes was performed in accordance with the method of Burns et al. described in Proc. Natl. Acad. Sci., 77, 5547 (1980). More specifically, a rat was decapitated, and the cerebral cortex (A1 receptor) or corpus striatun (A2 receptor) was suspended using Polyton in a Tris-HCl buffer solution of pH 7.7 (50 mM, 20 ml). This suspension was centrifuged at 48,000 g for 10 minutes, and the pellet was resuspended and centrifuged in a similar manner. The pellet was resuspended in a Tris-HCl buffer solution (50 mM), to which was added adenosine deaminase (2U/ml). The mixture was incubated at 37° C. for 30 minutes. This suspension was centrifuged and the pellet was stored at -20° C.
(§2) Using the above-mentioned pellet, adenosine antagonism (A1 and A2) was examined.
The experiment was performed analogously to that for A1 receptor antagonism. Using ^3 H-adenosine-5'-ethylcarboxamide (^3 H-NECA; about 0.1 μCi) as ligand, the experiment was conducted in the presence of 50 nM of cyclopentyladenosine. The nonspecific binding amount was measured in the presence of 10^-4 M of cyclopentyladenosine.

A1 receptor = biological target: T2, A1 receptor (Rattus norvegicus, UniProt P25099); test: A1 receptor antagonism (inhibition of 3H-cyclohexyladenosine binding, rat cerebral cortex membranes)
T2 construct: a rat was decapitated, and the cerebral cortex (A1 receptor); from tissue; host or cells: rat cerebral cortex membranes
T2 sequence (P25099 1-326): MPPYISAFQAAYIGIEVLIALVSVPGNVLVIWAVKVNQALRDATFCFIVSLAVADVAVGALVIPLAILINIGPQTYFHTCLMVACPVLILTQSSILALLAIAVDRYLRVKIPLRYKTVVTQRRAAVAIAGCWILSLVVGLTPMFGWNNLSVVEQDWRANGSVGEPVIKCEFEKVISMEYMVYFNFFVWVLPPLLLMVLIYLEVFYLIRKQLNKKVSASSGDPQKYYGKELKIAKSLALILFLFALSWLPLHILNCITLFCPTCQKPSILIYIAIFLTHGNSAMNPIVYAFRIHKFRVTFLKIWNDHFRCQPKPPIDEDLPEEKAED
Procedure: as §1, §2
The above-mentioned pellet was thawed at room temperature and suspended in a Tris-HCl buffer solution. To the suspension (0.9 ml) were added ^3 H-cyclohexyladenosine (^3 H-CHA)(ca. 0.05 μCi, 0.1 ml) and the test drug (10 μl), and the mixture was incubated at 25° C. for 60 minutes. The reaction mixture was subjected to filtration with GF/B filter. The filter was washed four times with a Tris-HCl buffer solution. The radioactivity on the filter was measured by liquid scintillation. The nonspecific binding amount was measured in the presence of 10^-5 M of L-phenyl isopropyladenosine.

[4] = rat cerebral cortex, 3H-CHA, 25° C., 60 minutes, read-out: A1 receptor (Ki, μM), binding-inhibition constant

T1 sequence (P30543 whole entry): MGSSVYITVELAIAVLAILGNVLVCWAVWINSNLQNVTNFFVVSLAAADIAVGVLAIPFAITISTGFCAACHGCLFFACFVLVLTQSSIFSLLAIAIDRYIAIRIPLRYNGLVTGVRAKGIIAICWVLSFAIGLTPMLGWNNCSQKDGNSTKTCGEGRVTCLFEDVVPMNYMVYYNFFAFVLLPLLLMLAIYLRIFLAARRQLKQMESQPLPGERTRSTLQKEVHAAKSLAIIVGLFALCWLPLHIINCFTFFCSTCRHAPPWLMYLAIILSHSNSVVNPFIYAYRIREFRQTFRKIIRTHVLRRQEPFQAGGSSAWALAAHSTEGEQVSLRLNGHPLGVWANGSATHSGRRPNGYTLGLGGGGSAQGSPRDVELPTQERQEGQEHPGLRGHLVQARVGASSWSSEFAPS

Ki (A2 receptor) [µM]	Ki (A1 receptor; [4]) [µM]	Compound	other results
0.26	0.034	CCCn1c(=O)c2c(nn3cc[nH]c23)n(Cc2ccccc2)c1=O [compound 8]	Avoidance Time (%) [2]: 243%
1.1	0.2	CCCCn1c(=O)n(Cc2ccccc2)c(=O)c2c1nn1cc[nH]c21 [compound 12]	–
0.28	0.01	CCCn1c(=O)c2c(nn3cc(-c4ccccc4)[nH]c23)n(Cc2ccccc2)c1=O [compound 15]	–
0.43	0.024	CCCn1c(=O)c2c(nn3c(C)c(C)[nH]c23)n(Cc2ccccc2)c1=O [compound 16]	–
0.35	0.0051	CCCCc1cn2nc3c(c(=O)n(CCC)c(=O)n3Cc3ccccc3)c2[nH]1 [compound 17]	–
0.12	0.0069	CCCn1c(=O)c2c(nn3cc(-c4cccc(OC)c4)[nH]c23)n(Cc2ccccc2)c1=O [compound 21]	–
0.21	0.0047	CCCn1c(=O)c2c(nn3cc(-c4ccc(OC)cc4)[nH]c23)n(Cc2ccccc2)c1=O [compound 22]	–
0.5	0.53	CCCn1c(=O)c2c(nn3cc(-c4ccccc4OC)[nH]c23)n(Cc2ccccc2)c1=O [compound 23]	–
> 0.5	0.053	CCCCOc1ccc(-c2cn3nc4c(c(=O)n(CCC)c(=O)n4Cc4ccccc4)c3[nH]2)cc1 [compound 24]	–
> 0.5	0.58	CCCn1c(=O)c2c(nn3cc(-c4ccc(C)cc4)[nH]c23)n(Cc2ccccc2)c1=O [compound 25]	–
> 0.5	0.037	CCCn1c(=O)c2c(nn3cc(-c4cccc(Cl)c4)[nH]c23)n(Cc2ccccc2)c1=O [compound 26]	–
> 0.5	0.58	CCCn1c(=O)c2c(nn3cc(-c4ccccc4Cl)[nH]c23)n(Cc2ccccc2)c1=O [compound 27]	–

More lines, now with the values behind:

Compound	Ki (A2 receptor) [µM]	Ki (A1 receptor; [4]) [µM]	other results
CCCn1c(=O)c2c(nn3cc[nH]c23)n(Cc2ccccc2)c1=O [Working Example 8, 1-Benzyl-3-propyl-1,2,3,4-tetrahydro-5H-imidazo[2',1':5,1]pyrazolo[3,4-d]pyrimidine-2,4-dione]	–	–	Time to recovery of righting reflex ([1]; 3 mg/kg oral, 30 minutes occlusion, average ± standard error, control 29.8 ± 5.9): 21.0 ± 3.2 min; Time to reappearance of spontaneous motility ([1]; 3 mg/kg oral, 30 minutes occlusion, average ± standard error): 55.2 ± 6.5 min; Time to recovery of righting reflex ([1]; 10 mg/kg oral, 30 minutes occlusion, average ± standard error, control 29.8 ± 5.9): 16.7 ± 2.6 min; Time to reappearance of spontaneous motility ([1]; 10 mg/kg oral, 30 minutes occlusion, average ± standard error, P < 0.05): 43.8 ± 4.7 min; Time to recovery of righting reflex ([1]; in words): tended to shorten the time to recovery of righting reflex dosedependently; time to reappearance of spontaneous motor activity ([1]; in words): shortened the time to reappearance of spontaneous motor activity; recovery of memory [2]: recovered the memory; Avoidance time ([3]; 3 mg/kg and 10 mg/kg, in words): prolonged the avoidance time, in the doses of 3 mg/kg and 10 mg/kg, dose-dependently; Avoidance time ([3]; 3 mg/kg, 5 minutes ischemia, median, control 17.5): 152.8 s; Avoidance time ([3]; 10 mg/kg, 5 minutes ischemia, median, control 17.5, P < 0.05): 285.9 s
CCCn1c(=O)c2c(nn3cc[nH]c23)n(Cc2ccc(Cl)cc2)c1=O [Working Example 9]	–	–	recovery of memory [2]: recovered the memory
CCCn1c(=O)c2c3n(nc2n(Cc2ccccc2)c1=O)CCN3 [compound 1]	3.3	0.12	–
CCCn1c(=O)c2c3n(nc2n(Cc2ccc(Cl)cc2)c1=O)CCN3 [compound 2]	2.9	0.14	–
CCCn1c(=O)c2c3n(nc2n(Cc2cccc(Cl)c2)c1=O)CCN3 [compound 3]	4.2	0.19	–
CCCn1c(=O)c2c3n(nc2n(Cc2ccccc2Cl)c1=O)CCN3 [compound 4]	6.5	0.27	–
CCCCn1c(=O)n(Cc2ccccc2)c(=O)c2c3n(nc21)CCN3 [compound 5]	4.5	0.67	–
CCCn1c(=O)c2c(nn3cc[nH]c23)n(Cc2ccc(Cl)cc2)c1=O [compound 9]	0.37	0.05	Avoidance Time (%) [2]: 262%
CCCn1c(=O)c2c(nn3cc[nH]c23)n(Cc2cccc(Cl)c2)c1=O [compound 10]	0.46	0.098	–
CCCn1c(=O)c2c(nn3cc[nH]c23)n(Cc2ccccc2Cl)c1=O [compound 11]	1	0.092	–
CCCn1c(=O)c2c(nn3cc[nH]c23)n(CCc2ccccc2)c1=O [compound 13]	16	0.53	–
CCCn1c(=O)c2c(nn3cc[nH]c23)n(CCCc2ccccc2)c1=O [compound 14]	2.5	0.11	–
CCCn1c(=O)c2c(nn3c4c([nH]c23)CCCC4)n(Cc2ccccc2)c1=O [compound 19]	0.19	0.027	–
CCCCn1c(=O)[nH]c(=O)c2c3n(nc21)CCN3 [compound 29]	39	18	–
CCCn1c(=O)[nH]c2nn3cc[nH]c3c2c1=O [compound 30]	0.42	–	Ki (A1 receptor): 0.42 µM

— patent US5032594A, “Tricyclic fused pyrimidine derivatives, their production and use” (Takeda Chemical Industries, Ltd., priority 1989, dated 1991)
